In brackets after ≈: the same amount, converted by molar mass. Activity calls are given as the source filed them. The rule behind the calls is not given here.
Legend:
Enterococcus faecium = test: Antimicrobial activity against vancomycin-resistant Enterococcus faecium VanA by micro broth dilution or agar based method; type: functional
Staphylococcus aureus [1] = test: Antimicrobial activity against Staphylococcus aureus Smith by micro broth dilution or agar based method; type: functional
Streptococcus pneumoniae = test: Antimicrobial activity against Streptococcus pneumoniae IID553 by micro broth dilution or agar based method; type: functional
Pseudomonas aeruginosa = test: Antimicrobial activity against Pseudomonas aeruginosa PAO1 by micro broth dilution or agar based method; type: functional
Staphylococcus aureus [2] = test: Antimicrobial activity against methicillin-resistant Staphylococcus aureus OIT971 by micro broth dilution or agar based method; type: functional, organism-based
Escherichia coli = test: Antimicrobial activity against Escherichia coli ATCC 25922 by micro broth dilution or agar based method; type: functional
Acinetobacter baumannii = test: Antimicrobial activity against Acinetobacter baumannii IID876 by micro broth dilution or agar based method; type: functional

Row | Compound | MIC (Enterococcus faecium) | MIC (Staphylococcus aureus [1]) | MIC (Streptococcus pneumoniae) | MIC (Pseudomonas aeruginosa) | growth inhibition (GI) (Staphylococcus aureus [2]) | MIC (Escherichia coli) | MIC (Acinetobacter baumannii)
1 | NCCCCOc1ccc2ncc(F)c(CCC34CCC(NCc5ccc6c(n5)NC(=O)CO6)(CC3)CO4)c2n1 | 8 µg/mL (≈ 14.5 µM) | 0.5 µg/mL (≈ 0.908 µM) | 1 µg/mL (≈ 1.82 µM) | 16 µg/mL (≈ 29.1 µM) | Active | 4 µg/mL (≈ 7.26 µM) | 8 µg/mL (≈ 14.5 µM)
2 | N[C@H]1CO[C@H]1COc1ccc2ncc(F)c(CCC34CCC(NCc5ccc6c(n5)NC(=O)CO6)(CC3)CO4)c2n1 | 4 µg/mL (≈ 7.08 µM) | 0.063 µg/mL (≈ 0.112 µM) | 0.5 µg/mL (≈ 0.886 µM) | 32 µg/mL (≈ 56.7 µM) | Active | 4 µg/mL (≈ 7.08 µM) | 1 µg/mL (≈ 1.77 µM)
3 | O=C1COc2ccc(CNC34CCC(CCc5c(F)cnc6ccc(OCC7(C(=O)O)CC7)nc56)(CC3)OC4)nc2N1 | 16 µg/mL (≈ 27.7 µM) | 0.5 µg/mL (≈ 0.866 µM) | 2 µg/mL (≈ 3.46 µM) | 16 µg/mL (≈ 27.7 µM) | Active | 16 µg/mL (≈ 27.7 µM) | 16 µg/mL (≈ 27.7 µM)
4 | N#CCCCOc1ccc2ncc(F)c(CCC34CCC(NCc5ccc6c(n5)NC(=O)CO6)(CC3)CO4)c2n1 | 2 µg/mL (≈ 3.66 µM) | 0.031 µg/mL (≈ 0.0567 µM) | 0.5 µg/mL (≈ 0.915 µM) | 16 µg/mL (≈ 29.3 µM) | Active | 4 µg/mL (≈ 7.32 µM) | 2 µg/mL (≈ 3.66 µM)
5 | CC(C)(O)CCOc1ccc2ncc(F)c(CCC34CCC(NCc5ccc6c(n5)NC(=O)CO6)(CC3)CO4)c2n1 | 16 µg/mL (≈ 28.3 µM) | 1 µg/mL (≈ 1.77 µM) | 4 µg/mL (≈ 7.07 µM) | 16 µg/mL (≈ 28.3 µM) | Active | 16 µg/mL (≈ 28.3 µM) | 16 µg/mL (≈ 28.3 µM)
6 | COC(=O)CCCCOc1ccc2ncc(F)c(CCC34CCC(NCc5ccc6c(n5)NC(=O)CO6)(CC3)CO4)c2n1 | 2 µg/mL (≈ 3.37 µM) | 0.063 µg/mL (≈ 0.106 µM) | 0.5 µg/mL (≈ 0.842 µM) | 4 µg/mL (≈ 6.74 µM) | Active | 4 µg/mL (≈ 6.74 µM) | 4 µg/mL (≈ 6.74 µM)
7 | O=C1COc2ccc(CNC34CCC(CCc5c(F)cnc6ccc(OC[C@H]7C[C@@H]7C(=O)O)nc56)(CC3)OC4)nc2N1 | 4 µg/mL (≈ 6.93 µM) | 0.25 µg/mL (≈ 0.433 µM) | 0.25 µg/mL (≈ 0.433 µM) | 16 µg/mL (≈ 27.7 µM) | Active | 16 µg/mL (≈ 27.7 µM) | 16 µg/mL (≈ 27.7 µM)
8 | O=C1COc2ccc(CNC34CCC([C@@H](O)Cc5c(F)cnc6ccc(OCCO)nc56)(CC3)OC4)nc2N1 | 4 µg/mL (≈ 7.41 µM) | 0.125 µg/mL (≈ 0.232 µM) | 1 µg/mL (≈ 1.85 µM) | 16 µg/mL (≈ 29.7 µM) | Active | 8 µg/mL (≈ 14.8 µM) | 2 µg/mL (≈ 3.71 µM)
9 | O=C1COc2ccc(CNC34CCC(CCc5c(F)cnc6ccc(OCCCCCO)nc56)(CC3)OC4)nc2N1 [listing 1 of 2 here] | – | – | – | – | Active | – | –
10 | COc1ccc2ncc(F)c(C[C@H](O)C34CCC(NCc5ccc6c(n5)NC(=O)CO6)(CC3)CO4)c2n1 [listing 1 of 2 here] | 0.5 µg/mL (≈ 0.981 µM) | 0.02 µg/mL (≈ 0.0393 µM) | 0.05 µg/mL (≈ 0.0981 µM) | 8 µg/mL (≈ 15.7 µM) | – | 2 µg/mL (≈ 3.93 µM) | 0.5 µg/mL (≈ 0.981 µM)
11 | O=C1COc2ccc(CNC34CCC(CCc5c(F)cnc6ccc(OCCCO)nc56)(CC3)OC4)nc2N1 [listing 1 of 2 here] | 1 µg/mL (≈ 1.86 µM) | 0.016 µg/mL (≈ 0.0298 µM) | 0.25 µg/mL (≈ 0.465 µM) | 16 µg/mL (≈ 29.8 µM) | – | 4 µg/mL (≈ 7.44 µM) | 2 µg/mL (≈ 3.72 µM)
12 | COCCOc1ccc2ncc(F)c(CCC34CCC(NCc5ccc6c(n5)NC(=O)CO6)(CC3)CO4)c2n1 [listing 1 of 2 here] | 4 µg/mL (≈ 7.44 µM) | 0.063 µg/mL (≈ 0.117 µM) | 1 µg/mL (≈ 1.86 µM) | 16 µg/mL (≈ 29.8 µM) | – | 8 µg/mL (≈ 14.9 µM) | 4 µg/mL (≈ 7.44 µM)
13 | O=C1COc2ccc(CNC34CCC(CCc5c(F)cnc6ccc(OCCCCCO)nc56)(CC3)OC4)nc2N1 [listing 2 of 2 here] | 4 µg/mL (≈ 7.07 µM) | 0.063 µg/mL (≈ 0.111 µM) | 1 µg/mL (≈ 1.77 µM) | 8 µg/mL (≈ 14.1 µM) | – | 8 µg/mL (≈ 14.1 µM) | 8 µg/mL (≈ 14.1 µM)
14 | NCCCOc1ccc2ncc(F)c(CCC34CCC(NCc5ccc6c(n5)NC(=O)CO6)(CC3)CO4)c2n1 | – | – | – | – | Active | – | –
15 | O=C1COc2ccc(CNC34CCC(CCc5c(F)cnc6ccc(OCCCO)nc56)(CC3)OC4)nc2N1 [listing 2 of 2 here] | – | – | – | – | Active | – | –
16 | O=C1COc2ccc(CNC34CCC(CCc5c(F)cnc6ccc(OCCO)nc56)(CC3)OC4)nc2N1 [listing 1 of 2 here] | 1 µg/mL (≈ 1.91 µM) | 0.031 µg/mL (≈ 0.0592 µM) | 0.25 µg/mL (≈ 0.477 µM) | 8 µg/mL (≈ 15.3 µM) | – | 4 µg/mL (≈ 7.64 µM) | 1 µg/mL (≈ 1.91 µM)
17 | COc1ccc2ncc(F)c(C[C@H](O)C34CCC(NCc5ccc6c(n5)NC(=O)CO6)(CC3)CO4)c2n1 [listing 2 of 2 here] | – | – | – | – | Active | – | –
18 | COCCOc1ccc2ncc(F)c(CCC34CCC(NCc5ccc6c(n5)NC(=O)CO6)(CC3)CO4)c2n1 [listing 2 of 2 here] | – | – | – | – | Active | – | –
19 | O=C1COc2ccc(CNC34CCC([C@@H](O)Cc5c(F)cnc6ccc(OCCCO)nc56)(CC3)OC4)nc2N1 | – | – | – | – | Active | – | –
20 | O=C1COc2ccc(CNC34CCC(CCc5c(F)cnc6ccc(OCCO)nc56)(CC3)OC4)nc2N1 [listing 2 of 2 here] | – | – | – | – | Active | – | –

Source: ChEMBL document CHEMBL3603744, “Structure activity relationship of C-2 ether substituted 1,5-naphthyridine analogs of oxabicyclooctane-linked novel bacterial topoisomerase inhibitors as broad-spectrum antibacterial agents (Part-5)” (Bioorg Med Chem Lett, 2015)
